Results from PMC12863195 (2026).
Each block holds one compound with its values, some of them ahead of it.

Columns and labels:
[1] = system: Split Ade aptamer – 0nt (d1/t1+d2/t2) (DNA, aptamer) AGGGTGGTGGCGTGCGGAGGAAGGT/ACCTGGGGGAGTATCGCCTAGGTTGGGT; assay: ITC; details: Mg2+ 40 mM (MgCl2); 40 mM Tris acetate pH 7.9, 25 °C; one set of sites fit
[2] = system: Split Ade aptamer – 3nt (Ga/Ha; d1/c/t1+d2/c'/t2) (DNA, aptamer) AGGGTGGTGGCGAACTGCGGAGGAAGGT/ACCTGGGGGAGTATGATCGCCTAGGTTGGGT; assay: ITC; details: Mg2+ 40 mM (MgCl2); 40 mM Tris acetate pH 7.9, 25 °C; one set of sites fit
[3] = system: Na/Ta/Pa (DNA, aptamer) ACCTGGGGGAGTATTAATACGACTCACTATAGGGTTCTCCTCTGCGTTGTTGTTTG/CAAACAACAACGCAGAGGAGAACCCTATAGTGAGTCG/TATTATGCGGAGGAAGGT; assay: transcription activation, F/Q strand displacement fluorescence; details: Mg2+ 20 mM (MgCl2); 1×RNAPol reaction buffer, 0.2 µM strands, 0.125-2 mM Ade, 33 °C
[4] = system: Intact Mel aptamer (DNA, aptamer) GCACACCGATGGCGGTCCTGTTTAGGGGGTGTGC; assay: ITC; details: Mg2+ 40 mM (MgCl2); 20 mM Tris acetate pH 7.9, 25 °C; one set of sites fit
[5] = system: Split Mel aptamer – 0nt (DNA, aptamer) GCACACCGATGGCGGTCCTGT/TTAGGGGGTGTGC; assay: ITC; details: Mg2+ 40 mM (MgCl2); 20 mM Tris acetate pH 7.9, 25 °C; poorly defined fit (ΔH -335 ±751 kJ/mol)
[6] = system: Split Mel aptamer – 4nt (DNA, aptamer) GCACACCGATGGCGGTCCTGTAGGT/ACCTTTAGGGGGTGTGC; assay: ITC; details: Mg2+ 40 mM (MgCl2); 20 mM Tris acetate pH 7.9, 25 °C; one set of sites fit
[7] = system: Gm/Hm (DNA, aptamer) AGGGTGGTGGCGAAAGCACACCGATGGCGGTCCTGTAGGT/ACCTTTAGGGGGTGTGCAAACGCCTAGGTTGGGT; assay: thrombin coagulation inhibition, light scattering; details: 1 µM Gm/Hm, 5 nM thrombin, 10 mg/ml fibrinogen, 10-1000 µM Mel, 25 °C
[8] = system: Nm/Tm/Pm (DNA, aptamer) TAATACGACTCACTATAGGGATCCCGACTGGCGAGAGCCAGGTAACGAATGGATCC/GGATCCATTCGTTACCTGGCTCTCGCCAGTCGGGATCCCTATAGTGAGTCTTAGGGGGTGTGC/GCACACCGATGGCGGTCCTGTGTATTA; assay: transcription activation, MG aptamer fluorescence; details: Mg2+ 20 mM (MgCl2); 1×RNAPol reaction buffer, 0.2 µM strands, 0.125-2 mM Mel, 35 °C
[9] = system: Dm/Em (DNA, aptamer) CTGTTCAGCGATGCACACCGATGGCGGTCCTGTAGGT/ACCTTTAGGGGGTGTGCCACCCATGTTCCTGA; assay: DNAzyme cleavage of FAM/BHQ1 substrate, fluorescence; details: Mg2+ 40 mM (MgCl2); apparent; 20 mM Tris acetate pH 7.9, 1 µM each strand, 1 µM substrate S, BSA
[10] = system: R1 (MG RNA aptamer) (RNA, aptamer) GGAUCCCGACUGGCGAGAGCCAGGUAACGAAUGGAUCC; assay: fluorescence (ex 632 nm, em 650 nm); details: Mg2+ 20 mM (MgCl2); 1×RNAPol reaction buffer, 5 mM DTT, 2 µM MG, 35 °C, during transcription
[11] = system: Split Ade aptamer – 3nt (Ga/Ha; d1/c/t1+d2/c'/t2) (DNA, aptamer) AGGGTGGTGGCGAACTGCGGAGGAAGGT/ACCTGGGGGAGTATGATCGCCTAGGTTGGGT; assay: stated; ADA-driven loss of thrombin inhibition; details: adenosine 1.25-1.8 mM converted by ADA

- Kd [1]: 14.1 ± 1.3 µM
- Kd [2]: 7.28 ± 0.82 µM
- binding [3]: yes
SMILES: Nc1ncnc2c1ncn2[C@@H]1O[C@H](CO)[C@@H](O)[C@H]1O

- Kd [4]: 0.800 ± 0.139 µM
- Kd [5]: 11.1 ± 2.09 µM
- Kd [6]: 0.890 ± 0.123 µM
- binding [7]: yes
- binding [8]: yes
- K0.5 [9]: 162 ± 4.8 µM
SMILES: Nc1nc(N)nc(N)n1

- binding [10]: yes
SMILES: CN(C)c1ccc(C(=C2C=CC(=[N+](C)C)C=C2)c2ccccc2)cc1

- binding [11]: no
SMILES: O=c1[nH]cnc2c1ncn2[C@@H]1O[C@H](CO)[C@@H](O)[C@H]1O
